According to US6706663B2, “Herbicidal 3-heterocyclic substituted benzisothiazole and benzisoxazole compounds” (Wyeth, priority 2000, dated 2004):

Legend:
[1] = test system: ABUTH (Abutilon theophrasti); assay: Postemergence herbicidal evaluation; format: in vivo, Medic.; details: for ABUTH herbicidal rating: postemergence
Method in brief: (§1)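 Visual 0–9 injury scores versus control plants, covering stand, vigour, malformation, size, chlorosis and general appearance, taken four to five weeks post-spray and averaged over replicate tests. Plants were sprayed at roughly two weeks old and held on greenhouse benches.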

[2] = test system: AMBEL (Ambrosia artemisifolia); assay: Postemergence herbicidal evaluation; format: in vivo, L.; details: for AMBEL herbicidal rating: postemergence
Method in brief: as §1

[3] = test system: CASOB (Cassia obtusifolia); assay: Postemergence herbicidal evaluation; format: in vivo, L.; details: for CASOB herbicidal rating: postemergence
Method in brief: as §1

[4] = test system: CHEAL (Chenopodium album); assay: Postemergence herbicidal evaluation; format: in vivo, L.; details: for CHEAL herbicidal rating: postemergence
Method in brief: as §1

[5] = test system: IPOHE (Ipomoea hederacea); assay: Postemergence herbicidal evaluation; format: in vivo, (L.) Jacq.; details: for IPOHE herbicidal rating: postemergence
Method in brief: as §1

[6] = test system: GLXMAW (Soybean, Williams); assay: Postemergence herbicidal evaluation; format: in vivo, Glycine max, (L.) Merr. cv Williams; details: for GLXMAW herbicidal rating: postemergence
Method in brief: as §1

[7] = test system: ORYSAT (Rice, Tebonnet); assay: Postemergence herbicidal evaluation; format: in vivo, Oryza sativa, (L.) Tebonnet; details: for ORYSAT herbicidal rating: postemergence
Method in brief: as §1

[8] = test system: ABUTH (Abutilon theophrasti); assay: Preemergence herbicidal evaluation; format: in vivo, Medic.; details: rated 4-5 weeks after treatment
[9] = test system: AMBEL (Ambrosia artemisifolia); assay: Preemergence herbicidal evaluation; format: in vivo, L.; details: rated 4-5 weeks after treatment
Method in brief: (§2)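 Steps: mix seeds with potting soil; plant on ~1 inch soil per cup; spray compound in aqueous acetone; hold on greenhouse benches with routine watering; rate 0–9 visually against control at 4–5 weeks.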

[10] = test system: CASOB (Cassia obtusifolia); assay: Preemergence herbicidal evaluation; format: in vivo, L.; details: rated 4-5 weeks after treatment
Method in brief: as §2

[11] = test system: CHEAL (Chenopodium album); assay: Preemergence herbicidal evaluation; format: in vivo, L.; details: rated 4-5 weeks after treatment
Method in brief: as §2

[12] = test system: IPOHE (Ipomoea hederacea); assay: Preemergence herbicidal evaluation; format: in vivo, (L.) Jacq.; details: rated 4-5 weeks after treatment
[13] = test system: ECHCG (Echinochloa crus-galli); assay: Preemergence herbicidal evaluation; format: in vivo, (L.) Beau; details: rated 4-5 weeks after treatment
Method in brief: as §2

[14] = test system: SETVI (Setaria viridis); assay: Preemergence herbicidal evaluation; format: in vivo, (L.) Beau; details: rated 4-5 weeks after treatment
Method in brief: as §2

[15] = test system: GLXMAW (Soybean, Williams); assay: Preemergence herbicidal evaluation; format: in vivo, Glycine max, (L.) Merr. cv Williams; details: rated 4-5 weeks after treatment
[16] = test system: TRZAWR (Wheat, Winter, cv Riband); assay: Preemergence herbicidal evaluation; format: in vivo, Triticum aestivum; details: rated 4-5 weeks after treatment
Method in brief: as §2

[17] = test system: ZEAMX (Corn, Field); assay: Preemergence herbicidal evaluation; format: in vivo, Zea mays, L.; details: rated 4-5 weeks after treatment
[18] = test system: CYPIR (Cyperus iria); assay: Flooded paddy, preemergence weed control; format: in vivo; details: rated 3-4 weeks after treatment, 0-9 rating scale
Method in brief: (§3)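 Silt loam, sowing depth ≤0.5 cm; permanent flood 1.5–3 cm above soil; greenhouse culture after treatment. Readout: 0-9 visual scale (stand, vigor, malformation, size, chlorosis, appearance) vs control.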

[19] = test system: MOOVA (Monochoria vaginalis); assay: Flooded paddy, preemergence weed control; format: in vivo, Presl.; details: rated 3-4 weeks after treatment, 0-9 rating scale
Method in brief: as §3

[20] = test system: ORYSAT (Rice, Tebonnet); assay: Flooded paddy, post-transplant rice tolerance; format: in vivo, Oryza sativa, (L.) Tebonnet; details: flooded paddy, post-transplant rice, rated 3-4 weeks after treatment, 0-9 rating scale
Method in brief: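 Steps: transplant two ten-day-old seedlings into silt loam; flood to 1.5-3 cm above soil; apply herbicide post-transplant; maintain water on greenhouse benches; rate stand, vigor, malformation, size and chlorosis on a 0-9 visual scale versus control.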

## Cc1ccsc1-c1nsc2ccc(-n3c(=O)cc(C(F)(F)F)n(C)c3=O)cc12 [Compound 4, 1-methyl-3-[3-(3-methyl-2-thienyl)-1,2-benzisothiazol-5-yl]-6-(trifluoromethyl)uracil]
[1]; rate 0.0320 kg/ha
  Postemergence herbicidal rating, ABUTH: 9.0
[1]; rate 0.0620 kg/ha
  Postemergence herbicidal rating, ABUTH: 9.0
[1]; rate 0.1250 kg/ha
  Postemergence herbicidal rating, ABUTH: 9.0
[2]; rate 0.0320 kg/ha
  Postemergence herbicidal rating, AMBEL: 8.1
[2]; rate 0.0620 kg/ha
  Postemergence herbicidal rating, AMBEL: 8.3
[2]; rate 0.1250 kg/ha
  Postemergence herbicidal rating, AMBEL: 9.0
[3]; rate 0.0320 kg/ha
  Postemergence herbicidal rating, CASOB: 5.2
[3]; rate 0.0620 kg/ha
  Postemergence herbicidal rating, CASOB: 6.2
[3]; rate 0.1250 kg/ha
  Postemergence herbicidal rating, CASOB: 9.0
[4]; rate 0.0320 kg/ha
  Postemergence herbicidal rating, CHEAL: 9.0
[4]; rate 0.0620 kg/ha
  Postemergence herbicidal rating, CHEAL: 9.0
[4]; rate 0.1250 kg/ha
  Postemergence herbicidal rating, CHEAL: 9.0
[5]; rate 0.0320 kg/ha
  Postemergence herbicidal rating, IPOHE: 8.6
[5]; rate 0.0620 kg/ha
  Postemergence herbicidal rating, IPOHE: 9.0
[5]; rate 0.1250 kg/ha
  Postemergence herbicidal rating, IPOHE: 9.0
[6]; rate 0.0320 kg/ha
  Postemergence herbicidal rating, GLXMAW: 6.2
[6]; rate 0.0620 kg/ha
  Postemergence herbicidal rating, GLXMAW: 6.8
[6]; rate 0.1250 kg/ha
  Postemergence herbicidal rating, GLXMAW: 7.3
[7]; rate 0.0320 kg/ha
  Postemergence herbicidal rating, ORYSAT: 2.8
[7]; rate 0.0620 kg/ha
  Postemergence herbicidal rating, ORYSAT: 3.8
[7]; rate 0.1250 kg/ha
  Postemergence herbicidal rating, ORYSAT: 4.5
[8]; Rate 0.0620 kg/ha
  ABUTH preemergence herbicidal rating: 7.8
[8]; Rate 0.1250 kg/ha
  ABUTH preemergence herbicidal rating: 8.9
[8]; Rate 0.2500 kg/ha
  ABUTH preemergence herbicidal rating: 9.0
[9]; Rate 0.0620 kg/ha
  AMBEL preemergence herbicidal rating: 5.9
[9]; Rate 0.1250 kg/ha
  AMBEL preemergence herbicidal rating: 7.3
[9]; Rate 0.2500 kg/ha
  AMBEL preemergence herbicidal rating: 8.9
[10]; Rate 0.0620 kg/ha
  CASOB preemergence herbicidal rating: 1.3
[10]; Rate 0.1250 kg/ha
  CASOB preemergence herbicidal rating: 3.4
[10]; Rate 0.2500 kg/ha
  CASOB preemergence herbicidal rating: 5.0
[11]; Rate 0.0620 kg/ha
  CHEAL preemergence herbicidal rating: 9.0
[11]; Rate 0.1250 kg/ha
  CHEAL preemergence herbicidal rating: 9.0
[11]; Rate 0.2500 kg/ha
  CHEAL preemergence herbicidal rating: 8.0
[12]; Rate 0.0620 kg/ha
  IPOHE preemergence herbicidal rating: 4.7
[12]; Rate 0.1250 kg/ha
  IPOHE preemergence herbicidal rating: 6.3
[12]; Rate 0.2500 kg/ha
  IPOHE preemergence herbicidal rating: 7.6
[13]; Rate 0.0620 kg/ha
  ECHCG preemergence herbicidal rating: 7.0
[13]; Rate 0.1250 kg/ha
  ECHCG preemergence herbicidal rating: 8.3
[13]; Rate 0.2500 kg/ha
  ECHCG preemergence herbicidal rating: 9.0
[14]; Rate 0.0620 kg/ha
  SETVI preemergence herbicidal rating: 8.8
[14]; Rate 0.1250 kg/ha
  SETVI preemergence herbicidal rating: 9.0
[14]; Rate 0.2500 kg/ha
  SETVI preemergence herbicidal rating: 9.0
[15]; Rate 0.0620 kg/ha
  GLXMAW preemergence herbicidal rating: 2.7
[15]; Rate 0.1250 kg/ha
  GLXMAW preemergence herbicidal rating: 4.4
[15]; Rate 0.2500 kg/ha
  GLXMAW preemergence herbicidal rating: 6.0
[16]; Rate 0.0620 kg/ha
  TRZAWR preemergence herbicidal rating: 1.2
[16]; Rate 0.1250 kg/ha
  TRZAWR preemergence herbicidal rating: 2.5
[16]; Rate 0.2500 kg/ha
  TRZAWR preemergence herbicidal rating: 4.3
[17]; Rate 0.0620 kg/ha
  ZEAMX preemergence herbicidal rating: 3.2
[17]; Rate 0.1250 kg/ha
  ZEAMX preemergence herbicidal rating: 4.2
[17]; Rate 0.2500 kg/ha
  ZEAMX preemergence herbicidal rating: 5.4
[18]; rate 0.0080 kg/ha
  herbicidal rating, CYPIR: 2.0
[18]; rate 0.0320 kg/ha
  herbicidal rating, CYPIR: 9.0
[18]; rate 0.1250 kg/ha
  herbicidal rating, CYPIR: 9.0
[19]; rate 0.0080 kg/ha
  herbicidal rating, MOOVA: 9.0
[19]; rate 0.0320 kg/ha
  herbicidal rating, MOOVA: 9.0
[19]; rate 0.1250 kg/ha
  herbicidal rating, MOOVA: 9.0
[20]; rate 0.0080 kg/ha
  herbicidal rating, ORYSAT (rice tolerance): 2.0
[20]; rate 0.0320 kg/ha
  herbicidal rating, ORYSAT (rice tolerance): 3.5
[20]; rate 0.1250 kg/ha
  herbicidal rating, ORYSAT (rice tolerance): 4.0

## C[C@@H]1C[C@H](C)OC(c2nsc3cc(F)c(-n4c(=O)cc(C(F)(F)F)n(C)c4=O)cc23)O1 (stereo partly drawn) [Compound 67, 3-[3-[(4R,6S)-4,6-dimethyl-m-dioxan-2-yl]-6-fluoro-1,2-benzisothiazol-5-yl]-1-methyl-6-(trifluoromethyl)uracil]
[1]; rate 0.0320 kg/ha
  ABUTH herbicidal rating: 9.0
[1]; rate 0.0620 kg/ha
  ABUTH herbicidal rating: 9.0
[2]; rate 0.0320 kg/ha
  AMBEL herbicidal rating: 9.0
[2]; rate 0.0620 kg/ha
  AMBEL herbicidal rating: 9.0
[3]; rate 0.0320 kg/ha
  CASOB herbicidal rating: 9.0
[3]; rate 0.0620 kg/ha
  CASOB herbicidal rating: 9.0
[4]; rate 0.0320 kg/ha
  CHEAL herbicidal rating: 9.0
[4]; rate 0.0620 kg/ha
  CHEAL herbicidal rating: 9.0
[5]; rate 0.0320 kg/ha
  IPOHE herbicidal rating: 9.0
[5]; rate 0.0620 kg/ha
  IPOHE herbicidal rating: 9.0
[6]; rate 0.0320 kg/ha
  GLXMAW herbicidal rating: 9.0
[6]; rate 0.0620 kg/ha
  GLXMAW herbicidal rating: 9.0
[7]; rate 0.0320 kg/ha
  ORYSAT herbicidal rating: 4.5
[7]; rate 0.0620 kg/ha
  ORYSAT herbicidal rating: 5.5
[8]; Rate 0.0620 kg/ha
  Preemergence herbicidal rating ABUTH: 9.0
[8]; Rate 0.1250 kg/ha
  Preemergence herbicidal rating ABUTH: 9.0
[9]; Rate 0.0620 kg/ha
  Preemergence herbicidal rating AMBEL: 9.0
[9]; Rate 0.1250 kg/ha
  Preemergence herbicidal rating AMBEL: 9.0
[10]; Rate 0.0620 kg/ha
  Preemergence herbicidal rating CASOB: 5.5
[10]; Rate 0.1250 kg/ha
  Preemergence herbicidal rating CASOB: 5.0
[11]; Rate 0.0620 kg/ha
  Preemergence herbicidal rating CHEAL: 9.0
[11]; Rate 0.1250 kg/ha
  Preemergence herbicidal rating CHEAL: 9.0
[12]; Rate 0.0620 kg/ha
  Preemergence herbicidal rating IPOHE: 7.0
[12]; Rate 0.1250 kg/ha
  Preemergence herbicidal rating IPOHE: 9.0
[13]; Rate 0.0620 kg/ha
  Preemergence herbicidal rating ECHCG: 9.0
[13]; Rate 0.1250 kg/ha
  Preemergence herbicidal rating ECHCG: 9.0
[14]; Rate 0.0620 kg/ha
  Preemergence herbicidal rating SETVI: 9.0
[14]; Rate 0.1250 kg/ha
  Preemergence herbicidal rating SETVI: 9.0
[15]; Rate 0.0620 kg/ha
  Preemergence herbicidal rating GLXMAW: 9.0
[15]; Rate 0.1250 kg/ha
  Preemergence herbicidal rating GLXMAW: 9.0
[16]; Rate 0.0620 kg/ha
  Preemergence herbicidal rating TRZAWR: 9.0
[16]; Rate 0.1250 kg/ha
  Preemergence herbicidal rating TRZAWR: 9.0
[17]; Rate 0.0620 kg/ha
  Preemergence herbicidal rating ZEAMX: 9.0
[17]; Rate 0.1250 kg/ha
  Preemergence herbicidal rating ZEAMX: 9.0
[18]; rate 0.0080 kg/ha
  herbicidal rating, CYPIR: 4.5
[18]; rate 0.0320 kg/ha
  herbicidal rating, CYPIR: 7.0
[18]; rate 0.1250 kg/ha
  herbicidal rating, CYPIR: 9.0
[19]; rate 0.0080 kg/ha
  herbicidal rating, MOOVA: 0.0
[19]; rate 0.0320 kg/ha
  herbicidal rating, MOOVA: 9.0
[19]; rate 0.1250 kg/ha
  herbicidal rating, MOOVA: 9.0
[20]; rate 0.0080 kg/ha
  herbicidal rating, ORYSAT (rice tolerance): 5.5
[20]; rate 0.0320 kg/ha
  herbicidal rating, ORYSAT (rice tolerance): 9.0
[20]; rate 0.1250 kg/ha
  herbicidal rating, ORYSAT (rice tolerance): 9.0
